Key:
[1] = system: sensory neurons from DRG of Sprague Dawley rat; assay: Total neurite outgrowth at low concentrations of M1R antagonists (immunostaining); type: cell-based; conditions: 24 hr culture
Protocol: Sensory neurons from cervical, thoracic and lumbar DRG of an adult 3-4 month old male Sprague Dawley rat were isolated and dissociated using the method described in Example 1, and then were cultured for 24 h in serum-free and insulin-free F12 medium in the presence of modified N2 additives. […] Neurite outgrowth was then assessed after a culture period of 24 hr.
Total neurite lengths (i.e., the sum of the length of all neurites produced by an individual neuron) were assessed using an immunostaining method. […] Four images were captured per well and the replicate well frequency was set to n=6. The neuronal marker β-tubulin III (Sigma-Aldrich Canada Ltd.) was applied to formalin fixed cells. The marker was tagged with the fluorescent conjugate Alexa Fluor 488 (Invitrogen Canada Ltd.). Fluorescent images were collected using an Olympus IX71 inverted microscope with a 20×/0.45 PH1 [sequence] objective that was suitable for resolving images on plastic surfaces. […] Captured image fluorescence was thereafter converted to a grayscale 8-bit image to quantify total pixel volume. […] Total pixel volume of the neuron specific cell bodies and neurites were quantified. […] The net pixel volume was normalized against the number of neuronal cells per quantified field.

[2] = system: AMP-activated protein kinase (AMPK); assay: Phosphorylation of AMPK in cultured sensory neurons (Western blot); type: cell-based, rat; conditions: 10 μM
Protocol: Samples were taken immediately (time 0) and then after 15 min, 30 min, 60 min, and 6 hr of incubation. Quantitative Western blotting was performed as following the procedure taught in Example 5. DRG homogenates of 5-10 μg of protein were resolved on a 10% SDS-PAGE gel and electroblotted onto nitrocellulose membrane. Blots were then blocked in 5% nonfat milk containing 0.05% Tween-20, rinsed in PBS (pH 7.4) and incubated with the following antibodies: (i) polyclonal anti-phospho AMPK (on Thr-172, 1:1000, Cell Signaling Technology, Danvers, MA, US), and (ii) extracellular signal-regulated kinase (T-ERK; 1:2000, Covance, Princeton, NJ, US). The blots were rinsed, incubated in Western blotting Luminol Reagent (Santa Cruz Biotechnology Inc., Santa Cruz, CA, US) and imaged using a BioRad Fluor-S image analyzer (BioRad, Hercules, CA, US).

[3] = system: STZ-induced diabetic Swiss Webster mice; assay: Reversal of thermal hypoalgesia and IENF loss in STZ-induced diabetic mice, i.p.; type: in vivo, mouse; conditions: 10 mg/kg i.p. daily for 4 weeks from week 8
Protocol: Swiss Webster (outbred) mice were made diabetic with 2 injections of 90 mg/kg STZ on consecutive days. […] The mice were maintained for 8 weeks after STZ injections. Diabetic neuropathy was well-established in the mice that received STZ injections as evidenced by signs of neuropathy (thermal hypoalgesia). A cohort then received 10 mg/kg VU255035 by i.p. injection daily for 4 weeks.

[4] = system: M1R relative to M(2)-M(5); conditions: cited from earlier work
M1R = conditions: cited from earlier work
[5] = in vivo in mice; cited from earlier work
[6] = system: sensory neurons from DRG of non-diabetic Sprague Dawley rat; assay: Neurite outgrowth from excised neurons from a normal rat; type: cell-based; conditions: 24 hr; for neurite outgrowth rates: higher dosages 0.1 to 10.0 μM; for neurite outgrowth: lowest dosage of 0.01 μM
Source text: Sensory neurons from cervical, thoracic and lumbar DRG of a 3-4 month old adult male ZDF diabetic rat (model of type 2 diabetes) were isolated and dissociated using a method based on the teachings of Fernyhough et al. (1993, Brain Res. 607:117-124), Gardiner et al. (2005, Mol. Cell Neurosci. 28:229-240), and Huang et al. (2003, Diabetes 52:2129-2136). Briefly, DRG were removed from all spinal levels, their roots trimmed, and then the cells were chemically dissociated in 0.125% collagenase (Worthington Biochemical Corp., Lakewood, NJ, USA) in F12 nutrient medium (Invitrogen Canada Inc., Burlington, ON, Canada) for 1.5 h at 37° C. The ganglia were then mechanically dissociated by treatment with 0.05% trypsin (Worthington Biochemical Corp.) in F12 nutrient medium, followed by trituration with a glass pipette. […] The neuron cells were plated onto poly-L-ornithine-laminin-coated NUNC 48-well or 96-well plastic dishes with optically clear glass bottoms in serum-free and insulin-free F12 medium in the presence of modified N2 additives (containing no insulin) at 37° C. in a 95% air/5% CO2 humidified incubator. All cultures were exposed to the following additional conditions: 10 mM D-glucose, 0.1 nM insulin, 0.3 ng/ml NGF, 1 ng/ml NT-3 and 5 ng/ml GDNF (all obtained from Sigma-Aldrich Canada Ltd.). […] Neurite outgrowth was then assessed at 24 hr as previously described by Fernyhough et al. (1993) and Gardiner et al. (2005).
Sensory neurons from cervical, thoracic and lumbar DRG of a 3-4 month old non-diabetic adult male Sprague Dawley rat were isolated and dissociated using the method described in Example 1. The excised and dissociated neuron cells were plated onto poly-L-ornithine-laminin-coated NUNC 48-well or 96-well plastic dishes with optically clear glass bottoms in serum-free and insulin-free F12 medium in the presence of modified N2 additives (containing no insulin) at 37° C. in a 95% air/5% CO2 humidified incubator. All cultures were exposed to the following additional conditions: 10 mM D-glucose, 0.1 nM insulin, 0.3 ng/ml NGF, 1 ng/ml NT-3 and 5 ng/ml GDNF (all obtained from Sigma-Aldrich Canada Ltd.). […] Neurite outgrowth was then assessed at 24 hr.

Structure (SMILES): O=C(CCNS(=O)(=O)c1cccc2nsnc12)N1CCN(c2ccncc2)CC1 [VU255035, N-(3-oxo-3-(4-(pyridine-4-yl)piperazin-1-yl)propyl)-benzo[c][1,2,5]thiadiazole-4 sulfonamide]
- concentration that significantly increased total neurite outgrowth [1]: ≥ 0.03 µM
- total AMPK levels [2]: not affected
- phosphorylation of AMPK (P-AMPK) relative to total ERK ([2]; 30-60 min): maintained phosphorylation
- phosphorylation of AMPK (P-AMPK) relative to total ERK ([2]; by 15 min): significantly raised phosphorylation of AMPK
- phosphorylation of AMPK (P-AMPK) relative to total ERK ([2]; by 6 hr): return to baseline
- loss of IENF [3]: significantly reversed loss
- loss of SNP [3]: significantly reversed loss
- thermal hypoalgesia [3]: significant reversal back to control levels of thermal sensitivity
- selectivity to M1R relative to M2, M3, M4 and M5 receptors [4]: 75 times
- selectivity for M1R relative to M(2)-M(5) ([4]; equilibrium radioligand binding and functional studies): greater than 75 fold
- mode of antagonism (M1R): competitive orthosteric antagonist of M1R
- blood brain barrier penetration [5]: excellent blood brain barrier penetration

Structure (SMILES): CN1[C@@H]2CC[C@H]1C[C@@H](OC(=O)C(CO)c1ccccc1)C2 (stereo partly shown) [atropine]
- neurite outgrowth rates [6]: did not further increase neurite outgrowth rates
- neurite outgrowth [6]: more than tripled

Structure (SMILES): Cc1scc2c1N(C(=O)CN1CCN(C)CC1)c1ccccc1NC2=O [telenzepine, Telenzepine]
- neurite outgrowth rates [6]: tripled
- neurite outgrowth [6]: more than doubled

Reference: patent US11925649B2, “Treatments for diabetic neuropathy” (University of Manitoba, priority 2010, dated 2024)
